From the supplement of paper PMC12076712

What was measured:
Assay in all cases: pIC50, kinobeads binding competition
TAOK2 = molecular target: T1, TAOK2 (UniProt Q9UL54)
T1 sequence (whole entry): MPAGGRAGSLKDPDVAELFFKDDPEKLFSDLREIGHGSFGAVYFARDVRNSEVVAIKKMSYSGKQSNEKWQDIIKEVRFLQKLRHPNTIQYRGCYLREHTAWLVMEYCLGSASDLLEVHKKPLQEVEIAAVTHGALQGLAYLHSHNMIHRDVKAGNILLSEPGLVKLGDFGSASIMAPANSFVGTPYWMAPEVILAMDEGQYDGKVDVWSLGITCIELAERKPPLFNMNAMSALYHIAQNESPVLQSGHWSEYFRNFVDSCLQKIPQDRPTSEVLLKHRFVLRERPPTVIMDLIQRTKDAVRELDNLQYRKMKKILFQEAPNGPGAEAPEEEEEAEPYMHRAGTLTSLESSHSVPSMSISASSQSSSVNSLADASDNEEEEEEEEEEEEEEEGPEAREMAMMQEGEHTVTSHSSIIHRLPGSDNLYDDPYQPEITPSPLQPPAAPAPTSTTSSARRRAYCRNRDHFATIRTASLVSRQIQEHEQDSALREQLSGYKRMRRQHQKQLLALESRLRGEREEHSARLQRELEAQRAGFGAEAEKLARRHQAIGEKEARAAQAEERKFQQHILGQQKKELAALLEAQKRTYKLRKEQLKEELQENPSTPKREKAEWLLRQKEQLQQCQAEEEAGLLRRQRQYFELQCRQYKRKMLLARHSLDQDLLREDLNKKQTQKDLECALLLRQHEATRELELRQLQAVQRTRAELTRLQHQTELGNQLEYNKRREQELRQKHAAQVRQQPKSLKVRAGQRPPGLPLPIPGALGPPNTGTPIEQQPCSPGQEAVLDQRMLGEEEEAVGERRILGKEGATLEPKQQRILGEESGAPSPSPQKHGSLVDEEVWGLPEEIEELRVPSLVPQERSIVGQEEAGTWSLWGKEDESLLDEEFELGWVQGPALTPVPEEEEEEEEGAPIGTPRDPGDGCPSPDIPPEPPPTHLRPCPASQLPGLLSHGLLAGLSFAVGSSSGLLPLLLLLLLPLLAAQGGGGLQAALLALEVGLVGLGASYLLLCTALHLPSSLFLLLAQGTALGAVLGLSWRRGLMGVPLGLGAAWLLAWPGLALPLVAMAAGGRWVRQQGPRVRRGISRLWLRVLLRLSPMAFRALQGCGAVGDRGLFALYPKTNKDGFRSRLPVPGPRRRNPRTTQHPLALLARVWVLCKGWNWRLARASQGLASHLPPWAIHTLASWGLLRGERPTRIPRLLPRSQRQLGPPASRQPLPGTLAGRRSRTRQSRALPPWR
Procedure, shortened: (§1)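 To obtain pIC50, fold changes versus vehicle were fitted to logistic dose-response curves (R drc package) across biological duplicates. Protein binding to Kinobeads was quantified by TMT10 LC-MS/MS of digested bead-bound proteins. Treatments used nine concentrations with a top of 30 μM, applied to live Jurkat cells in 1:4 steps for 60 min at 37 °C before lysis, or to Jurkat lysate or a 1:1:1:1 HEK293/K-562/HepG2/placenta lysate mix in 1:5 steps for 60 min at 4 °C.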

STK39 = STK39 (UniProt Q9UEW8)
Procedure, shortened: as §1

CAMKK2 = CAMKK2 (UniProt Q96RR4)
CAMKK2, sequence (Q96RR4 whole entry, looked up): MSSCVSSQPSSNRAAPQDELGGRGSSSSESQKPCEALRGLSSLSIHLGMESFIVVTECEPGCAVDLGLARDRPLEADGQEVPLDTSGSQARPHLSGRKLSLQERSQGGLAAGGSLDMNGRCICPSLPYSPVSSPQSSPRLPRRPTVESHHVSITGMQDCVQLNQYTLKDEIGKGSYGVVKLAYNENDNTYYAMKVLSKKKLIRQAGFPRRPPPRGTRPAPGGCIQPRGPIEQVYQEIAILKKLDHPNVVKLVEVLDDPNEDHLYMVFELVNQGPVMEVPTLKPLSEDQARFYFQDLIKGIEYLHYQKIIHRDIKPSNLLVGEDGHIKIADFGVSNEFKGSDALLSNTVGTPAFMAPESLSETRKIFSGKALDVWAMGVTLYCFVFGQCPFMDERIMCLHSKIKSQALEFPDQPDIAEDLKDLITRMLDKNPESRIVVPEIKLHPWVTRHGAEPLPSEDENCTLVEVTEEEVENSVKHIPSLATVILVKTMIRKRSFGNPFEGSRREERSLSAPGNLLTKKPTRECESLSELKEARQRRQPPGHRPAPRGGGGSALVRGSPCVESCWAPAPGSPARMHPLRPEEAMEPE
Procedure, shortened: as §1

SRC = SRC (UniProt P12931)
SRC, sequence (P12931 whole entry, looked up): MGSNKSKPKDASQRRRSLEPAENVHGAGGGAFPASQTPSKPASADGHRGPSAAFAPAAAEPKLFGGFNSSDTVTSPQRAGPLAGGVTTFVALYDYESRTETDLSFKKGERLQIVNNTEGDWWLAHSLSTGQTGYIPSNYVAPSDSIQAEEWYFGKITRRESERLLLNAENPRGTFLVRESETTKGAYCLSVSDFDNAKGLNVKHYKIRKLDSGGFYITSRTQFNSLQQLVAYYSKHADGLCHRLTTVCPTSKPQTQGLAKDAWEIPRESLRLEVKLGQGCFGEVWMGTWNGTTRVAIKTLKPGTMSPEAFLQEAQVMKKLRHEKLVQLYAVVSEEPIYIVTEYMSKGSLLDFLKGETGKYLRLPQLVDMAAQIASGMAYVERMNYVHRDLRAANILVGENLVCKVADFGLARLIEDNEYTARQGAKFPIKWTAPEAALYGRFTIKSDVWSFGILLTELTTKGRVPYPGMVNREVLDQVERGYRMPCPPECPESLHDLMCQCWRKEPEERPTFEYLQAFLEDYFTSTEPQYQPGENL
Procedure, shortened: as §1

GAK = molecular target: T2, GAK (UniProt O14976)
T2 sequence (whole entry): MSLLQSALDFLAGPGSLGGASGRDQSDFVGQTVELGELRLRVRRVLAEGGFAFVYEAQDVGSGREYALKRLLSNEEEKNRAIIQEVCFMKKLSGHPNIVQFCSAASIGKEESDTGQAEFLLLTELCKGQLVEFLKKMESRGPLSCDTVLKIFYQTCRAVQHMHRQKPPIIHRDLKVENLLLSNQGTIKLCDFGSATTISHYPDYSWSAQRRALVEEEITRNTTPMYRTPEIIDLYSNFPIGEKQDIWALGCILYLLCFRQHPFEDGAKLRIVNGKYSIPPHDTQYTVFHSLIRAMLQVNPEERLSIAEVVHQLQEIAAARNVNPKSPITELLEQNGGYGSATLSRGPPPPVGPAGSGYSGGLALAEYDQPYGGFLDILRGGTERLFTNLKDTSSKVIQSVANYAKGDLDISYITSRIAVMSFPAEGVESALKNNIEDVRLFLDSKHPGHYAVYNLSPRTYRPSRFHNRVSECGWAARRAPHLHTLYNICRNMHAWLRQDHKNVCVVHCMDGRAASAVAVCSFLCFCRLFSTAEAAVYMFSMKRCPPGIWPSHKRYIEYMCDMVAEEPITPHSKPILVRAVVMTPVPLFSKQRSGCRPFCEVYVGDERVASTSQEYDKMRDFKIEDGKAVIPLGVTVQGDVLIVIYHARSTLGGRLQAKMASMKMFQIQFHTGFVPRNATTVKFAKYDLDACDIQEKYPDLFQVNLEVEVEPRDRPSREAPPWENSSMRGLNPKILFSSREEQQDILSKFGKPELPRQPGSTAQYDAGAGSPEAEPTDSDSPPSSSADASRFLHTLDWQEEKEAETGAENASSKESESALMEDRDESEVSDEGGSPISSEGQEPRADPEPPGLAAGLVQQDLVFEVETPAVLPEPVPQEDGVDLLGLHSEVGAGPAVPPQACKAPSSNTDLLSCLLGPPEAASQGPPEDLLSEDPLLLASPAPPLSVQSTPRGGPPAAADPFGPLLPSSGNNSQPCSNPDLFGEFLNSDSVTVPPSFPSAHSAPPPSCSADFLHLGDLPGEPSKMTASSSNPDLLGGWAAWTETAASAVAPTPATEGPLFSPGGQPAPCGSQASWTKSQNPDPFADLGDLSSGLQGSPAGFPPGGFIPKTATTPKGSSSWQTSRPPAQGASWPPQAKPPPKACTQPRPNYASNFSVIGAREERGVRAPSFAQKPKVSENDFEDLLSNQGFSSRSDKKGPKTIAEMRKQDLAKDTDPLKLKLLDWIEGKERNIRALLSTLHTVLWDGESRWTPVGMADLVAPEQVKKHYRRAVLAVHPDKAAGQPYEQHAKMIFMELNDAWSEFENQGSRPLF
Procedure, shortened: as §1

SMILES	pIC50 (TAOK2; cell material: Lysate mix)	pIC50 (STK39; cell material: Lysate mix)	pIC50 (CAMKK2; cell material: Lysate mix)	pIC50 (SRC; cell material: Lysate mix)	pIC50 (GAK; cell material: Lysate mix)	pIC50 (TAOK2; cell material: Jurkat cells)	pIC50 (TAOK2; cell material: Jurkat lysate)	pIC50 (STK39; cell material: Jurkat cells)	pIC50 (STK39; cell material: Jurkat lysate)	pIC50 (CAMKK2; cell material: Jurkat cells)	pIC50 (CAMKK2; cell material: Jurkat lysate)	pIC50 (SRC; cell material: Jurkat cells)	pIC50 (SRC; cell material: Jurkat lysate)	pIC50 (GAK; cell material: Jurkat cells)	pIC50 (GAK; cell material: Jurkat lysate)
Cc1cc(Nc2cc(C(=O)NCCNC(=O)OC3CC/C=C/CCC3)nc(N3CCN(Cc4ccc(S(=O)(=O)F)cc4)CC3)n2)n[nH]1 (configuration not stated)	5.15	< 4.52	< 4.52	4.7	< 4.52	–	–	–	–	–	–	–	–	–	–
O=C(NCCNC(=O)c1cc(Nc2cc(C3CC3)[nH]n2)nc(N2CCN(Cc3ccc(S(=O)(=O)F)cc3)CC2)n1)OC1CC/C=C/CCC1 (configuration not stated)	5.33	–	5	–	< 4.52	5.96	5.08	5.62	< 4.52	6.18	5.1	5.9	< 4.52	< 4.52	< 4.52
C#CCNC(=O)c1cc(Nc2cc(C3CC3)[nH]n2)nc(N2CCN(Cc3ccc(S(=O)(=O)F)cc3)CC2)n1	< 4.52	5.92	5.88	6.24	< 4.52	–	< 4.52	6.04	5.28	5.88	5.7	6.41	5.68	< 4.52	< 4.52
CCNC(=O)c1cc(Nc2cc(C3CC3)[nH]n2)nc(N2CCN(Cc3ccc(S(=O)(=O)F)cc3)CC2)n1	< 4.52	5.65	5.6	6.14	< 4.52	–	–	–	–	–	–	–	–	–	–

Further lines, with some results ahead:

pIC50 (TAOK2; cell material: Lysate mix)	pIC50 (STK39; cell material: Lysate mix)	pIC50 (CAMKK2; cell material: Lysate mix)	pIC50 (SRC; cell material: Lysate mix)	pIC50 (GAK; cell material: Lysate mix)	pIC50 (TAOK2; cell material: Jurkat cells)	SMILES	pIC50 (TAOK2; cell material: Jurkat lysate)	pIC50 (STK39; cell material: Jurkat cells)	pIC50 (STK39; cell material: Jurkat lysate)	pIC50 (CAMKK2; cell material: Jurkat cells)	pIC50 (CAMKK2; cell material: Jurkat lysate)	pIC50 (SRC; cell material: Jurkat cells)	pIC50 (SRC; cell material: Jurkat lysate)	pIC50 (GAK; cell material: Jurkat cells)	pIC50 (GAK; cell material: Jurkat lysate)
< 4.52	5.73	< 4.52	5.89	< 4.52	–	C#CCNC(=O)c1cc(Nc2cc(C)[nH]n2)nc(N2CCN(Cc3ccc(S(=O)(=O)F)cc3)CC2)n1	–	–	–	–	–	–	–	–	–
< 4.52	4.66	< 4.52	6.61	< 4.52	–	CCNC(=O)c1cc(Nc2cc(C)[nH]n2)nc(N2CCN(Cc3ccc(S(=O)(=O)F)cc3)CC2)n1	–	–	–	–	–	–	–	–	–
